How the values were obtained:
[1] = test system: M.tb-lux; assay type: cell-based, Mycobacterium tuberculosis
[2] = test system: M.tb; assay: CFU assay, M.tb-infected murine BMDMs; assay type: cell-based, Mycobacterium tuberculosis; conditions: 30 μM pan inhibitor, 4 days of treatment, MOI 1
[3] = test system: M.tb; assay: CFU assay, M.tb-infected murine lung macrophages; assay type: cell-based, Mycobacterium tuberculosis; conditions: 30 μM pan inhibitor, 2 days of treatment, MOI 1
[4] = test system: M.tb; assay type: in vivo, BALB/c mice; conditions: isoniazid positive control, vs placebo
[5] = test system: M.tb; assay: CFU assay, M.tb-infected human in vitro TB granulomas; assay type: cell-based, Mycobacterium tuberculosis; conditions: 30 μM sabutoclax, 7 days

SMILES: Cc1c(-c2c(-c3ccc(F)o3)sc3ncnc(O[C@H](Cc4ccccc4OCc4ccnn4CC(F)(F)F)C(=O)O)c23)ccc(OCCN2CCN(C)CC2)c1Cl [S63845]
- M.tb growth in human MDMs (luciferase) [1]: reduced M.tb growth in donor 1 after 4 days, but to a limited extent relative to the pan inhibitor Sabutoclax

SMILES: CC(C)c1ccccc1Cc1cc(C(=O)Nc2ccc(S(=O)(=O)c3ccccc3C(C)(C)C)cc2)c(O)c(O)c1O [TW37]
- M.tb CFUs normalized to DMSO control in BMDMs [2]: reduction in the number of M.tb CFUs
- number of M.tb CFUs in lung macrophages [3]: reduction in the number of M.tb CFUs

SMILES: NNC(=O)c1ccncc1 [isoniazid]
- M.tb growth in murine lungs (CFU) [4]: significantly reduced M.tb growth in murine lungs
- M.tb growth in murine spleen (CFU) [4]: significantly reduced M.tb growth
- acid fast stained M.tb in the mouse lung [4]: reduction in bacteria
- lung inflammation (hematoxylin and eosin stain) [4]: reduced inflammation

SMILES: Cc1cc2c(C(=O)NC[C@H](C)c3ccccc3)c(O)c(O)cc2c(O)c1-c1c(C)cc2c(C(=O)NC[C@H](C)c3ccccc3)c(O)c(O)cc2c1O [sabutoclax]
- M.tb CFUs normalized to DMSO control in BMDMs [2]: reduction in the number of M.tb CFUs
- number of M.tb CFUs in lung macrophages [3]: reduction in the number of M.tb CFUs
- M.tb growth in human granulomas (CFU) [5]: significant reduction in M.tb growth

From US20240180929A1, “TREATMENT OF INFECTIOUS DISEASES USING BCL-2 FAMILY PROTEIN INHIBITORS” (TEXAS BIOMEDICAL RESEARCH INSTITUTE, priority 2020, published 2024)
